Values of other authors, collected in patent US20150030676A1, “STABLIZED MODIFIED RELEASE FOLIC ACID DERIVATIVE COMPOSITION, ITS THERAPEUTIC USE AND METHODS OF MANUFACTURE” (APTALIS PHARMATECH, INC., priority 2013, published 2015).

Details: in vivo

Substance: 6(S)-5-methyltetrahydrofolate [L-methylfolate]
- plasma elimination half life: about 3 hours
